According to patent US20100298252A1, “METHODS AND COMPOSITIONS FOR OPHTHALMIC TREATMENT OF FUNGAL AND BACTERIAL INFECTIONS” (priority 2004, published 2010):

Columns and labels:
[1] = tested on: Enterococcus faecalis; assay: Antibiotic resistance profile by disc diffusion; format: cell-based; parameters: key: R = resistant; I = intermediate; S = sensitive; conditions: disc diffusion on MHA
Method: (§1) The organisms of this study were isolated from human burn patients. They included strains of methicillin resistant Staphylococcus aureus, and vancomycin resistant strains of Pseudomonas aeruginosa and Enterococcus faecalis. The bacterial isolates were propagated in or on Brain Heart Infusion broth (BHI), Mueller-Hinton Broth (MHB), blood agar (BA), Mueller-Hinton agar (MHA), enterococcus agar (EA), or 2× nutrient agar (2×NA).
(§2) Antibiotic resistance profiles were determined by the disc diffusion method on MHA (5).

[2] = tested on: Staphylococcus aureus; assay: Antibiotic resistance profile by disc diffusion; format: cell-based; parameters: key: R = resistant; I = intermediate; S = sensitive; conditions: disc diffusion on MHA
Method: as §1, §2

[3] = tested on: Pseudomonas aeruginosa; assay: Antibiotic resistance profile by disc diffusion; format: cell-based; parameters: key: R = resistant; I = intermediate; S = sensitive; conditions: disc diffusion on MHA
Method: as §1, §2

[4] = tested on: Penicillium sp.; assay: Antifungal MIC 50 / MIC 90 alone and combined with Tricide; format: cell-based; conditions: for % decrease MIC 50 / % decrease MIC 90 / MIC 50 combined with Tricide / MIC 90 combined with Tricide: Tricide 200 ug/ml; for MIC50 / MIC90: antifungal alone
[5] = tested on: Fusarium sp. 3; assay: microbe, parasite or virus in culture; format: cell-based; conditions: for % decrease MIC 50 / % decrease MIC 90 / MIC 50 combined with Tricide / MIC 90 combined with Tricide: Tricide 540 ug/ml; for MIC50 / MIC90: antifungal alone
[6] = tested on: Candidia albicans ATCC 90028; assay: Antifungal MIC 50 / MIC 90 alone and combined with Tricide; format: cell-based, Candida albicans; conditions: for MIC50 / MIC90 / % decrease MIC 50 / % decrease MIC 90 / MIC 50 combined with Tricide: Candida albicans; for MIC50 / MIC90: ATCC90028, antifungal alone; for MIC50 / MIC90 / Summary % reduction in MIC 50 using Tricide / Summary % reduction in MIC 90 using Tricide: Candidia albicans ATCC 90028; for % decrease MIC 50 / % decrease MIC 90 / MIC 50 combined with Tricide: Tricide […];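 for all read-outs here: MIC 50 and MIC 90 values are means, and the percent decrease is the drop in MIC when the antifungal is combined with Tricide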
[7] = tested on: Cladosporium sp.; assay: as above; format: cell-based; conditions: for % decrease MIC 50 / % decrease MIC 90 / MIC 50 combined with Tricide / MIC 90 combined with Tricide: Tricide 200 ug/ml; for MIC50 / MIC90: antifungal alone
[8] = tested on: Fusarium sp. 2; assay: microbe, parasite or virus in culture; format: cell-based; conditions: for MIC50 / MIC90: antifungal alone
[9] = tested on: Aspergillus sp.; assay: Antifungal MIC 50 / MIC 90 alone and combined with Tricide; format: cell-based; conditions: for % decrease MIC 50 / % decrease MIC 90 / MIC 50 combined with Tricide / MIC 90 combined with Tricide: Aspergillus sp., Tricide 200 ug/ml; for MIC50 / MIC90: Aspergillus, antifungal alone; for MIC50 / MIC90 / Summary % reduction in MIC 50 using Tricide / Summary % reduction in MIC 90 using Tricide: Aspergiullus sp.
[10] = tested on: Paecilomyces variotti ATCC 36257; assay: as above; format: cell-based; conditions: for MIC50 / MIC90: ATCC36257, Paecilomyces variotti ATCC 36257, antifungal alone; for MIC50: read-out: MIC 50; for MIC90: read-out: MIC 90
[11] = tested on: Fusarium sp. 1; assay: microbe, parasite or virus in culture; format: cell-based; conditions: for Summary % reduction in MIC 50 using Tricide / Summary % reduction in MIC 90 using Tricide: Fasarium sp. 1; for % decrease MIC 50 / % decrease MIC 90 / MIC 90 combined with Tricide / MIC50 / MIC90: Fusarium sp. 1; for % decrease MIC 50 / % decrease MIC 90 / MIC 90 combined with Tricide: Tricide 540 ug/ml; for MIC50 / MIC90: antifungal alone;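 for all read-outs here: mean MIC 50 and MIC 90 values against fungal isolates, with percent decrease in MIC when the antifungal is combined with Tricide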
[12] = tested on: Curvularia sp.; assay: Antifungal MIC 50 / MIC 90 alone and combined with Tricide; format: cell-based; conditions: for % decrease MIC 50 / % decrease MIC 90 / MIC 50 combined with Tricide / MIC 90 combined with Tricide: Curvilaria sp., Tricide 200 ug/ml; for Summary % reduction in MIC 50 using Tricide / Summary % reduction in MIC 90 using Tricide / MIC50 / MIC90: Curvularia sp.; for MIC50 / MIC90: antifungal alone;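 for all read-outs here: antifungal MIC 50 and MIC 90 values against fungal isolates, with percent figures expressing how much the MIC fell once Tricide was added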
[13] = Paecilomyces variotti ATCC36257
[14] = Paecilomyces variotti, Tricide […]

CCn1cc(C(=O)O)c(=O)c2ccc(C)nc21 [NA, nalidixic acid]
Antibiotic resistance profile [1]: R | Antibiotic resistance profile [2]: R | Antibiotic resistance profile [3]: R

gentamicin [Gm]
Antibiotic resistance profile [1]: R | Antibiotic resistance profile [2]: S | Antibiotic resistance profile [3]: I

Cc1noc(NS(=O)(=O)c2ccc(N)cc2)c1C [G, sulfisoxazole]
Antibiotic resistance profile [1]: R | Antibiotic resistance profile [2]: S | Antibiotic resistance profile [3]: R

CN(C)[C@@H]1C(O)=C(C(N)=O)C(=O)[C@@]2(O)C(O)=C3C(=O)c4c(O)cccc4[C@@](C)(O)[C@H]3C[C@@H]12 [Te, tetracycline]
Antibiotic resistance profile [1]: R | Antibiotic resistance profile [2]: S | Antibiotic resistance profile [3]: R

[H]/N=C(/N)N[C@H]1[C@H](O)[C@@H](O)[C@H](O[C@@H]2O[C@@H](C)[C@](O)(C=O)[C@H]2O[C@@H]2O[C@@H](CO)[C@H](O)[C@@H](O)[C@@H]2NC)[C@@H](N/C(N)=N\[H])[C@@H]1O [S, streptomycin]
Antibiotic resistance profile [1]: R | Antibiotic resistance profile [2]: S | Antibiotic resistance profile [3]: R

Clc1ccc(COC(Cn2ccnc2)c2ccc(Cl)cc2Cl)c(Cl)c1 (stereo not drawn) [Miconazole, miconazole]
Summary % reduction in MIC 50 using Tricide [4]: 100% | Summary % reduction in MIC 90 using Tricide [4]: 100% | % decrease MIC 50 [4]: 100% | % decrease MIC 90 [4]: 100% | MIC 50 combined with Tricide [4]: 0 µg/mL | MIC 90 combined with Tricide [4]: 0 µg/mL | MIC50 [4]: 0.181 µg/mL | MIC90 [4]: 0.361 µg/mL | Summary % reduction in MIC 50 using Tricide [5]: 100% | Summary % reduction in MIC 90 using Tricide [5]: 100% | % decrease MIC 50 [5]: 100% | % decrease MIC 90 [5]: 100% | MIC 50 combined with Tricide [5]: 0 µg/mL | MIC 90 combined with Tricide [5]: 0 µg/mL | MIC50 [5]: > 128 µg/mL | MIC90 [5]: > 128 µg/mL | MIC50 [6]: 0.5 µg/mL | MIC90 [6]: > 1 µg/mL | % decrease MIC 50 [6]: 100% | % decrease MIC 90 [6]: 100% | MIC 50 combined with Tricide [6]: 0 µg/mL | Summary % reduction in MIC 50 using Tricide [6]: 100% | Summary % reduction in MIC 90 using Tricide [6]: 100% | Summary % reduction in MIC 50 using Tricide [7]: 97% | Summary % reduction in MIC 90 using Tricide [7]: 98% | % decrease MIC 50 [7]: >97% | % decrease MIC 90 [7]: 98% | MIC 50 combined with Tricide [7]: <0.125 µg/mL | MIC 90 combined with Tricide [7]: 0.25 µg/mL | MIC50 [7]: 4 µg/mL | MIC90 [7]: 16 µg/mL | Summary % reduction in MIC 50 using Tricide [8]: >99.9%-100% | Summary % reduction in MIC 90 using Tricide [8]: 99.9%-100% | % decrease MIC 50 ([8]; Tricide 540 ug/ml): >99.9-100% ^ | % decrease MIC 90 ([8]; Tricide 540 ug/ml): 99.9-100%^ | MIC 90 combined with Tricide ([8]; Tricide 540 ug/ml): 0.05 µg/mL | MIC50 [8]: > 128 µg/mL | MIC90 [8]: > 128 µg/mL | % decrease MIC 50 [9]: 96% | % decrease MIC 90 [9]: 84% | MIC 50 combined with Tricide [9]: 0.1250 µg/mL | MIC 90 combined with Tricide [9]: 2 µg/mL | MIC50 [9]: 3.11 µg/mL | MIC90 [9]: 12.4 µg/mL | Summary % reduction in MIC 50 using Tricide [9]: 96% | Summary % reduction in MIC 90 using Tricide [9]: 84% | MIC50 [10]: 0.0764 µg/mL | MIC90 [10]: > 1 µg/mL | Summary % reduction in MIC 50 using Tricide [10, 13]: 97.4% | % decrease MIC 50 [10, 14]: 97.4% | MIC 50 combined with Tricide [10, 14]: 0.002 µg/mL | MIC 90 combined with Tricide [10, 14]: >1 µg/mL | Summary % reduction in MIC 50 using Tricide [11]: >99.8%-100% | Summary % reduction in MIC 90 using Tricide [11]: 99.8%-100% | % decrease MIC 50 [11]: >99.8-100% ^ | % decrease MIC 90 [11]: 99.8-100%^ | MIC 90 combined with Tricide [11]: 0 to 0.05 µg/mL | MIC50 [11]: > 128 µg/mL | MIC90 [11]: > 128 µg/mL | % decrease MIC 50 [12]: 99-100% ^ | % decrease MIC 90 [12]: 90-100% ^ | MIC 50 combined with Tricide [12]: 0 to 0.0250 µg/mL | MIC 90 combined with Tricide [12]: 0 to 0.4 µg/mL | Summary % reduction in MIC 50 using Tricide [12]: 99-100% ^ | Summary % reduction in MIC 90 using Tricide [12]: 90-100% ^ | MIC50 [12]: 3.11 µg/mL | MIC90 [12]: 4 µg/mL

CCC(C)n1ncn(-c2ccc(N3CCN(c4ccc(OCC5COC(Cn6cncn6)(c6ccc(Cl)cc6Cl)O5)cc4)CC3)cc2)c1=O (stereo not drawn) [Itraconazole, itraconazole]
Summary % reduction in MIC 50 using Tricide [4]: 100% | Summary % reduction in MIC 90 using Tricide [4]: 100% | % decrease MIC 50 [4]: 100% | % decrease MIC 90 [4]: 100% | MIC 50 combined with Tricide [4]: 0 µg/mL | MIC 90 combined with Tricide [4]: 0 µg/mL | MIC50 [4]: 0.5 µg/mL | MIC90 [4]: 0.722 µg/mL | Summary % reduction in MIC 50 using Tricide [5]: 100% | Summary % reduction in MIC 90 using Tricide [5]: 100% | % decrease MIC 50 [5]: 100% | % decrease MIC 90 [5]: 100% | MIC 50 combined with Tricide [5]: 0 µg/mL | MIC 90 combined with Tricide [5]: 0 µg/mL | MIC50 [5]: > 128 µg/mL | MIC90 [5]: > 128 µg/mL | MIC50 [6]: 0.201 µg/mL | MIC90 [6]: > 1 µg/mL | % decrease MIC 50 [6]: 100% | % decrease MIC 90 [6]: 100% | MIC 50 combined with Tricide [6]: 0 µg/mL | Summary % reduction in MIC 50 using Tricide [6]: 100% | Summary % reduction in MIC 90 using Tricide [6]: 100% | Summary % reduction in MIC 50 using Tricide [7]: 93.8% | Summary % reduction in MIC 90 using Tricide [7]: 96.9% | % decrease MIC 50 [7]: >93.8% ^ | % decrease MIC 90 [7]: 96.9% | MIC 50 combined with Tricide [7]: <0.25 µg/mL | MIC 90 combined with Tricide [7]: 0.5 µg/mL | MIC50 [7]: 4 µg/mL | MIC90 [7]: 16 µg/mL | Summary % reduction in MIC 50 using Tricide [8]: >99.9%-100% | Summary % reduction in MIC 90 using Tricide [8]: >99.9%-100% | % decrease MIC 50 ([8]; Tricide 540 ug/ml): >99.9-100% ^ | % decrease MIC 90 ([8]; Tricide 540 ug/ml): >99.9-100% ^ | MIC50 [8]: > 128 µg/mL | MIC90 [8]: > 128 µg/mL | % decrease MIC 50 [9]: 84% | % decrease MIC 90 [9]: 90% | MIC 50 combined with Tricide [9]: 0.1250 µg/mL | MIC 90 combined with Tricide [9]: 0.25 µg/mL | MIC50 [9]: 0.786 µg/mL | MIC90 [9]: 2.43 µg/mL | Summary % reduction in MIC 50 using Tricide [9]: 84% | Summary % reduction in MIC 90 using Tricide [9]: 90% | MIC50 [10]: 0.0764 µg/mL | MIC90 [10]: 0.5 µg/mL | Summary % reduction in MIC 50 using Tricide [10, 13]: 95% | Summary % reduction in MIC 90 using Tricide [10, 13]: 50% | % decrease MIC 50 [10, 14]: 95% | % decrease MIC 90 [10, 14]: 50% | MIC 50 combined with Tricide [10, 14]: 0.0039 µg/mL | MIC 90 combined with Tricide [10, 14]: 0.25 µg/mL | Summary % reduction in MIC 50 using Tricide [11]: >99.9%-100% | Summary % reduction in MIC 90 using Tricide [11]: 99.9%-100% | % decrease MIC 50 [11]: >99.9-100% ^ | % decrease MIC 90 [11]: 99.9-100%^ | MIC 90 combined with Tricide [11]: 0 to 0.05 µg/mL | MIC50 [11]: > 128 µg/mL | MIC90 [11]: > 128 µg/mL | % decrease MIC 50 [12]: 97-100% ^ | % decrease MIC 90 [12]: 80-100% ^ | MIC 50 combined with Tricide [12]: 0 to 0.0250 µg/mL | MIC 90 combined with Tricide [12]: 0 to 0.4 µg/mL | Summary % reduction in MIC 50 using Tricide [12]: 97%-100% | Summary % reduction in MIC 90 using Tricide [12]: 80%-100% | MIC50 [12]: 0.778 µg/mL | MIC90 [12]: 2 µg/mL
